In patent publication US4330553A, “7-Oxo-PGI2 -derivatives and process for the preparation thereof and pharmaceutical compositions containing same” (Chinoin Gyogyszer es Vegyeszeti Termekek Gyara R.T., priority 1979, dated 1982):
In brackets after ≈: the same amount, converted by molar mass. Counter-ions that a name gives are not always drawn. Like-named read-outs stand apart in the source and are kept apart here.

Legend:
[1] = system: thrombocytes; test: Thrombocyte aggregation inhibiting activity in human plasma enriched with thrombocytes (aggregation induced with ADP or collagen); assay type: cell-based
Text: ID50 concentrations in case of aggregation generated with ADP and collagen resp. in plasma enriched with thrombocytes (PRB) isolated from human blood are as disclosed hereinbelow. As a comparison ID50 concentration values obtained with PGI2 sodium salt under the same test conditions are given.

[2] = acidic or neutral medium; decomposes to 6-keto-PGF1α; cited from earlier work
[3] = aggregation induced with ADP, read-out: ID50, thrombocyte aggregation inhibiting activity, ADP
[4] = aggregation induced with collagen, read-out: ID50, thrombocyte aggregation inhibiting activity, collagen

SMILES | IC50 [1, 3] | IC50 [1, 4] | stability of PGI2 [2]
CCCCC[C@H](O)/C=C/[C@@H]1[C@H]2C(=O)/C(=C/CCCC(=O)OC)O[C@H]2C[C@H]1O [7-Oxo-PGI2-methyl ester, 7-Oxo-PGI2-methylester] | 0.1 to 0.2 µg/mL (≈ 0.263 to 0.526 µM) | 0.05 µg/mL (≈ 0.131 µM) | –
CCCCC[C@H](O)/C=C/[C@@H]1[C@H]2C/C(=C/CCCC(=O)O)O[C@H]2C[C@H]1O [PGI2] | – | – | immediately decomposes
CCCCC[C@H](O)/C=C/[C@@H]1[C@H]2C(=O)/C(=C/CCCC(=O)O)O[C@H]2C[C@H]1O [Sodium salt of 7-oxo-PGI2] | 0.015 µg/mL | 0.08 µg/mL | –
CCCCC[C@H](O)/C=C/[C@@H]1[C@H]2C/C(=C/CCCC(=O)O)O[C@H]2C[C@H]1O [Sodium salt of PGI2, reference compound] | 0.001 to 0.002 µg/mL | 0.001 to 0.002 µg/mL | –
